Laboratory results reported in ChEMBL document CHEMBL5055678, “Structure-based drug design of novel and highly potent pyruvate dehydrogenase kinase inhibitors” (Bioorg Med Chem, 2021).

Key:
[1] = molecular target: [Pyruvate dehydrogenase (acetyl-transferring)] kinase isozyme 2, mitochondrial (Homo sapiens, UniProt Q15119); test: Inhibition of human recombinant PDHK2 co-complexed with porcine PDH using sodium pyruvate, coenzymeA and NAD as substrates preincubated with enzyme complex for 45 mins followed by substrates addition and further incubated for 90 mins in presence of ATP at Km concentration by spectrophotometric assay
[2] = molecular target: T1, [Pyruvate dehydrogenase (acetyl-transferring)] kinase isozyme 4, mitochondrial (Homo sapiens, UniProt Q16654); test: (§1) Inhibition of human recombinant PDHK4 co-complexed with porcine PDH using sodium pyruvate, coenzymeA and NAD as substrates preincubated with enzyme complex for 45 mins followed by substrates addition and further incubated for 90 mins in presence of ATP at Km concentration by spectrophotometric assay
Target sequence in this assay (Q16654 whole entry): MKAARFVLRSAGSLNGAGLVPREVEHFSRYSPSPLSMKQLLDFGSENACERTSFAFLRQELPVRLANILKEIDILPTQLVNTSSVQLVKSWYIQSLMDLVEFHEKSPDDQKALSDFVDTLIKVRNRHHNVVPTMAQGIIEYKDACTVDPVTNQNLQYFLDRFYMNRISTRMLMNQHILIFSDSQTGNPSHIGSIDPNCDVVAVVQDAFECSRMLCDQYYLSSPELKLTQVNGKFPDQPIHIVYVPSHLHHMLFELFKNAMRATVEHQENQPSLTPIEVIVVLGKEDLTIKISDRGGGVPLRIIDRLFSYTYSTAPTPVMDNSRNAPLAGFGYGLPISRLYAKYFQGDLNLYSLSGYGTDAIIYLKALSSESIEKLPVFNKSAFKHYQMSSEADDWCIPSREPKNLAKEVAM

[3] = molecular target: T2, Branched-chain alpha-ketoacid dehydrogenase kinase (Homo sapiens, UniProt O14874); test: Inhibition of human recombinant BCKDK at >100 uM incubated for 60 mins in presence of ATP by ADP-Glo reagent based luminescent assay relative to control
[4] = molecular target: T2, Branched-chain alpha-ketoacid dehydrogenase kinase; test: Inhibition of human recombinant BCKDK incubated for 60 mins in presence of ATP by ADP-Glo reagent based luminescent assay
[5] = molecular target: [Pyruvate dehydrogenase (acetyl-transferring)] kinase isozyme 1, mitochondrial (Homo sapiens, UniProt Q15118); test: Inhibition of human recombinant PDHK1 co-complexed with porcine PDH using sodium pyruvate, coenzymeA and NAD as substrates preincubated with enzyme complex for 45 mins followed by substrates addition and further incubated for 90 mins by spectrophotometric assay
[6] = molecular target: T1, [Pyruvate dehydrogenase (acetyl-transferring)] kinase isozyme 4, mitochondrial; test: as §1, with “porcine PDH at 30 uM using sodium” for “porcine PDH using sodium”, “spectrophotometric assay relative to control” for “spectrophotometric assay”; conditions: time 135.0 min
Target sequence in this assay (Q16654 whole entry, looked up): as the sequence (Q16654 whole entry) above

Chain of [Pyruvate dehydrogenase (acetyl-transferring)] kinase isozyme 1, mitochondrial (Q15118 whole entry): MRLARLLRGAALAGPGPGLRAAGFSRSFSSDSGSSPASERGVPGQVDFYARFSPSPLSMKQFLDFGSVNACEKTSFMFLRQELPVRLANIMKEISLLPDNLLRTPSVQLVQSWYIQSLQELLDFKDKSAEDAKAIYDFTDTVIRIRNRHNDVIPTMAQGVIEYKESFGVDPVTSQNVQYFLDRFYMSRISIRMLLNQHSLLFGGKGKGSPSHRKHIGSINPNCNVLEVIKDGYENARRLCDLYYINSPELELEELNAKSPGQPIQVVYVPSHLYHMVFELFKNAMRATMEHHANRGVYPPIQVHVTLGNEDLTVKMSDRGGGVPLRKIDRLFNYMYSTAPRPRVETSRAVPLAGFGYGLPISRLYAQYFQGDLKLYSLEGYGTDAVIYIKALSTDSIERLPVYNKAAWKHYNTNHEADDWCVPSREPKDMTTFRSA

| SMILES | IC50 [1] | IC50 [2] | inhibition [3] | IC50 [4] | IC50 [5] | inhibition [6] |
| --- | --- | --- | --- | --- | --- | --- |
| CCc1nnc(-c2cc3c(nc2C)[nH]c2c(C4CC4)cccc23)o1 | 190 nM | 2120 nM |  |  |  |  |
| Cc1nc2[nH]c3c(C4CC4)cccc3c2cc1-c1nnc(CC(C)C)o1 | 56 nM | 462 nM |  |  |  |  |
| Cc1nc2[nH]c3c(C4CC4)cccc3c2cc1-c1nnc(C(C)C(C)C)o1 (stereo not drawn) | 87 nM | 494 nM |  |  |  |  |
| Cc1nc(N2CCCC2)c2c(n1)[nH]c1c(C3CC3)cccc12 | 2410 nM | 10300 nM |  |  |  |  |
| CCCc1nnc(-c2cc3c(nc2C)[nH]c2c(C4CC4)cccc23)o1 | 91 nM | 292 nM |  |  |  |  |
| Cc1nc2[nH]c3c(C4CC4)cccc3c2cc1-c1ccccn1 | 1510 nM | 2980 nM |  |  |  |  |
| Cc1nc2[nH]c3c(C4CC4)cccc3c2cc1-c1nnc(C(NC(=O)CCc2ccccc2)C(C)C)o1 (stereo not drawn) | 4.2 nM | 24.1 nM | 3% | > 100 µM |  |  |
| Cc1nc(N2C[C@@](Cc3ccccc3)(C(N)=O)C[C@H]2CO)c2c(n1)[nH]c1c(C3CC3)cccc12 | 4.5 nM | 260 nM |  |  |  |  |
| Cc1nc(N2C[C@@H](c3ccc(C(N)=O)[nH]3)C[C@H]2CO)c2c(n1)[nH]c1c(C3CC3)cccc12 | 5.5 nM | 17.8 nM |  |  |  |  |
| Cc1ccc2c(n1)[nH]c1c(C3CC3)cccc12 | 2030 nM | 11900 nM |  |  |  |  |
| COC(=O)c1cc2c(nc1C)[nH]c1c(C3CC3)cccc12 | 210 nM | 1540 nM |  |  |  |  |
| Cc1ncc2c(n1)[nH]c1c(C3CC3)cccc12 | 710 nM |  |  | > 300 µM | 5.87 µM |  |
| Cc1cnc(Cl)nc1-c1ccc(N(Cc2ccccc2)C(=O)c2ccc(O)cc2O)cc1 | 35 nM | 350 nM |  |  |  |  |
| Cc1nc2[nH]c3c(C4CC4)cccc3c2cc1-c1ccccc1 | 5330 nM | 7490 nM |  |  |  |  |
| Cc1nc2[nH]c3c(C4CC4)cccc3c2cc1-c1nnc([C@@H](CC(=O)N[C@H](C)c2ccccc2)C(C)C)o1 | 17.1 nM | 61.5 nM |  |  |  |  |
| Cc1nc(N2C[C@H](c3ccccc3)C[C@H]2CO)c2c(n1)[nH]c1c(C3CC3)cccc12 | 1010 nM | 7700 nM |  |  |  |  |
| Cc1nc(N2C[C@H](Cc3ccccc3)C[C@H]2CO)c2c(n1)[nH]c1c(C3CC3)cccc12 | 73 nM | 1120 nM |  |  |  |  |
| Cc1nc(N2C[C@](CO)(Cc3ccccc3)C[C@H]2CO)c2c(n1)[nH]c1c(C3CC3)cccc12 | 14.6 nM | 292 nM |  |  |  |  |
| Cc1nnc(-c2cc3c(nc2C)[nH]c2c(C4CC4)cccc23)o1 | 490 nM | 1510 nM |  |  |  |  |
| CCc1nnc(-c2cc3c(nc2C)[nH]c2c(C4CC4)cccc23)s1 | 1490 nM | 6620 nM |  |  |  |  |
| Cc1nc(N2C[C@@H](c3ccc(C(=O)O)[nH]3)C[C@H]2CO)c2c(n1)[nH]c1c(C3CC3)cccc12 | 5.1 nM | 12.2 nM |  |  |  |  |
| Cc1nc2[nH]c3c(C4CC4)cccc3c2cc1-c1nnc(C(CC(=O)NCc2ccccc2)C(C)C)o1 (stereo not drawn) | 6 nM | 32.9 nM | 18% | > 100 µM |  |  |
| Cc1nc(N2CCC[C@H]2CO)c2c(n1)[nH]c1c(C3CC3)cccc12 | 352 nM | 4530 nM |  |  |  |  |
| CNC(=O)c1cc2c(nc1C)[nH]c1c(C3CC3)cccc12 | 5510 nM | > 30000 nM |  |  |  | 35% |
| Cc1nc(N2CCC[C@@H]2CO)c2c(n1)[nH]c1c(C3CC3)cccc12 | 8520 nM | > 30000 nM |  |  |  | 21% |
| CC[C@@H]1C[C@H](c2ccc(C(=O)O)[nH]2)CN1c1nc(C)nc2[nH]c3c(C4CC4)cccc3c12 | 9.2 nM | 40.6 nM |  |  |  |  |
| CCC1CCCN1c1nc(C)nc2[nH]c3c(C4CC4)cccc3c12 (stereo not drawn) | 758 nM | 8460 nM |  |  |  |  |
| Cc1nc2[nH]c3c(C4CC4)cccc3c2cc1-c1nnc(C(C)C)o1 | 130 nM | 592 nM |  |  |  |  |
